Tests used:
[1] = tested on: Enterovirus 71 (EV71) H strain; assay: In vitro anti-EV71 activity (antiviral activity in RD cells, CellTiter-Glo); assay type: cell-based; settings: for IC50: Enterovirus A, 96 h, EV71 H strain, RD cells, 4 days, CellTiter-Glo, read-out: IC50; for in vitro anti-EV71 activity, in words: EV71, RD cells
Description: According to the mass and molecular weight of the compound to be tested, the compound to be tested was dissolved to 100 mM (mmol/L) with DMSO.
Detection of Antiviral Activity:
(1) First, the compound to be tested was diluted to 800 μM with cell maintenance solution (DMEM+2% FBS, Gibco, catalog numbers: 11995-065, 1600-044), and three-fold gradient dilution was performed to prepare 10 concentrations in total. The diluted compound was added to a 96-well plate with white wall and transparent bottom, 50 μl per well. To both the cell control group and the virus control group, an equal volume of the cell maintenance solution was added.
(2) EV71 virus (purchased from ATCC) was taken out from the −80° C. refrigerator and equilibrated to room temperature.
(3) The virus seed was diluted with a virus growth solution (DMEM+2% FBS, Gibco, catalog numbers: 11995-065, 1600-044) to 100TCID50, the diluted virus seed was added to the 96-well plate of (1), with […] per well. The same volume of the virus growth solution was added to the cell control group.
(4) RD cells (purchased from ATCC) were inoculated at a concentration of 1*10^5/mL into the 96-well plate of (1), with 100 μL per well, to reach a final volume of 200 μL per well. The final concentration of drug was 0.25 times the initial concentration.
(5) RD cells were cultured at 37° C. for 4 days for testing.
(6) The Buffer of CellTiter-Glo® luminescent cell viability assay reagent (Promega) was mixed with the substrate in the dark to prepare a working solution.
(§1) (7) The culture medium in the plate was discarded, the plate was dried by patting, 100 μL of the detection reagent was added to each well, and the 96-well plate was shaken on an orbital shaker for 4 minutes to induce cell lysis. After keeping in the dark and subjecting to signal stabilization for 15 minutes, the chemiluminescence unit was detected by using MD5 microplate reader (Molecular Devices), and the plate reading program was performed according to the CellTiter-Glo preset program.
The inhibition rate-concentration curve was fitted to S-curve by using origin8.0 software to calculate the IC50 value of the compound to be tested.
(§2) The formula for calculating the inhibition rates of drug at different dilution degrees was as follows: inhibition rate (%)=(average value of cell control group−value of experimental group)/(average value of cell control group−minimum value of experimental group)*100
(§3) The inhibition rate-concentration curve was fitted to S-curve by using origin8.0 software, and the IC50 value of the compound to be tested was calculated. The same method was used to calculate the TD50 value, and the selection index SI=TD50/IC50 was calculated according to the half maximal inhibitory concentration IC50 and the median toxic dose TD50.

RD cells = assay: Detection of cytotoxicity in RD cells (CellTiter-Glo); assay type: cell-based; settings: 4 days, CellTiter-Glo, median toxic dose
Description: Detection of Cytotoxicity:
(1) The compound to be tested was diluted to a concentration of 400 μM with the cell maintenance solution, and 3-fold gradient dilution was carried out to obtain 10 concentrations in total.
(2) The diluted compound was added to a 96-well plate with white wall and transparent bottom, with 100 μL per well. An equal volume of the cell maintenance solution was added to the cell control group.
(3) RD cells were inoculated into the above 96-well plate at a concentration of 1*10^5/mL, with 100 μL per well, to reach a final volume of 200 μL per well, and the final concentration of drug was 0.5 times the pretreatment concentration.
(4) The RD cells were cultured at 37° C. for 4 days for testing.
(5) The Buffer of CellTiter-Glo® luminescent cell viability assay reagent was mixed with the substrate in the dark to prepare a working solution.
as §1, with “(6)” for “(7)”, “detected,” for “detected by using MD5 microplate reader (Molecular Devices),”
as §2, §3

Row | Structure (SMILES) | IC50 [1] | TD50 (RD cells) | melting point | in vitro anti-EV71 activity, in words [1]
1 | COc1cncc(-c2ccc3ncc4oc(=O)n(-c5cccc(C(F)(F)F)c5)c4c3c2)c1 [HTL-5-30, 8-[3-(5-methoxy)pyridyl]-1-[3-(trifluoromethyl)phenyl]oxazolo[5,4-c]quinolin-2(1H)-one] | > 200 µM | 68.52 ± 0.42 µM | 257 to 258 °C | 
2 | O=c1oc2cnc3ccc(-c4ccc(C(F)(F)F)cc4)cc3c2n1-c1cccc(C(F)(F)F)c1 [HTL-5-29, 8-(4-trifluoromethyl)phenyl-1-[3-(trifluoromethyl)phenyl]oxazolo[5,4-c]quinolin-2(1H)-one] | > 200 µM | >200 µM | 265 to 266 °C | 
3 | Cc1cc(Nc2ccc3ncc4ccc(=O)n(-c5cccc(C(F)(F)F)c5)c4c3c2)ccc1F [HTL-6-24, 9-[(4-fluoro-3-methyl)phenyl]imino-2-oxo-1-[3-(trifluoromethyl)phenyl]-1,2-dihydrobenzo[h][1,6]naphthyridine] | > 200 µM | 7.2 ± 0.33 µM | 210 to 211 °C | 
4 | C#CCNc1ccc(-c2ccc3ncc4ccc(=O)n(-c5cccc(C(F)(F)F)c5)c4c3c2)cn1 [HTL-7-29, 9-[3-(6-propargylamino)pyridyl]-2-oxo-1-[3-(trifluoromethyl)phenyl]-1,2-dihydrobenzo[h][1,6]naphthyridine] | 0.09 µM | 0.29 ± 0.03 µM | 139 to 141 °C | 
5 | O=c1ccc2cnc3ccc(Nc4ccc(F)nc4)cc3c2n1-c1cccc(C(F)(F)F)c1 [HTL-6-20, 9-[3-(6-fluoropyridyl)]imino-2-oxo-1-[3-(trifluoromethyl)phenyl]-1,2-dihydrobenzo[h][1,6]naphthyridine] | > 200 µM | 59.31 ± 3.98 µM | 232 to 233 °C | 
6 | Cc1ccc(Nc2ccc3ncc4ccc(=O)n(-c5cccc(C(F)(F)F)c5)c4c3c2)cc1C [HTL-6-17, 9-(3,4-dimethylphenyl)imino-2-oxo-1-[3-(trifluoromethyl)phenyl]-1,2-dihydrobenzo[h][1,6]naphthyridine] | > 200 µM | 6.81 ± 1.03 µM | 140 to 141 °C | 
7 | COc1cncc(-c2ccc3ncc(/C=C/C(C)=O)c(Nc4cccc(C(F)(F)F)c4)c3c2)c1 [HTL-3-07, (E)-6-[3-(5-methoxy)pyridyl]-4-[3-(trifluoromethyl)phenyl]aminoquinoline-3-butenone] | > 200 µM | >200 µM | 164 to 167 °C | 
8 | Nc1ccc(-c2ccc3ncc4oc(=O)n(-c5cccc(C(F)(F)F)c5)c4c3c2)cn1 [HTL-4-32, 8-[3-(6-amino)pyridyl]-1-[3-(trifluoromethyl)phenyl]oxazolo[5,4-c]quinolin-2(1H)-one] | 5.57 ± 1.53 µM | 14.5 ± 6.4 µM | 146 to 147 °C | moderate inhibitory activity
9 | CCOC(=O)CC/C=C/c1ccc2ncc3oc(=O)n(-c4cccc(C(F)(F)F)c4)c3c2c1 [HTL-6-38, (E)-8-(4-ethoxycarbonyl-but-1-enyl)-1-[3-(trifluoromethyl)phenyl]oxazolo [5,4-c]quinolin-2(1H)-one] | > 200 µM | 22.74 ± 0.01 µM | 162 to 164 °C | 
10 | CC(=O)Nc1ccc(Nc2ccc3ncc4ccc(=O)n(-c5cccc(C(F)(F)F)c5)c4c3c2)cc1 [HTL-6-27, 9-(4-acetylaminophenyl)imino-2-oxo-1-[3-(trifluoromethyl)phenyl]-1,2-dihydrobenzo[h][1,6]naphthyridine] | 7.14 ± 3.21 µM | 10.65 ± 0.57 µM | 175 to 177 °C | moderate activity
11 | NC(=O)NC/C=C/c1ccc2ncc3ccc(=O)n(-c4cccc(C(F)(F)F)c4)c3c2c1 [HTL-7-25, (E)-9-[3-ureido-propenyl]-2-oxo-1-[3-(trifluoromethyl)phenyl]-1,2-dihydrobenzo[h][1,6]naphthyridine] | 0.41 ± 0.03 µM | 4.42 ± 0.45 µM | 150 to 151 °C | moderate inhibitory activity
12 | N#C/C=C/c1ccc2ncc3oc(=O)n(-c4cccc(C(F)(F)F)c4)c3c2c1 [HTL-6-32, (E)-8-(2-cyano-vinyl)-1-[3-(trifluoromethyl)phenyl]oxazolo[5,4-c]quinolin-2(1H)-one] | > 200 µM | >200 µM | 235 to 237 °C | 
13 | O=c1ccc2cnc3ccc(Nc4ccc(Cl)nc4)cc3c2n1-c1cccc(C(F)(F)F)c1 [HTL-6-21, 9-[3-(6-chloropyridyl)]imino-2-oxo-1-[3-(trifluoromethyl)phenyl]-1,2-dihydrobenzo[h][1,6]naphthyridine] | > 200 µM | 20.75 ± 2.11 µM | 137 to 138 °C | 
14 | COC(=O)/C=C/c1ccc2ncc3oc(=O)n(-c4cccc(C(F)(F)F)c4)c3c2c1 [HTL-6-33, (E)-8-(2-methoxycarbonyl-vinyl)-1-[3-(trifluoromethyl)phenyl]oxazolo[5,4-c]quinolin-2(1H)-one] | > 200 µM | 71.99 ± 0.78 µM | 243 to 245 °C | 
15 | CCCc1ccc(-c2ccc3ncc4oc(=O)n(-c5cccc(C(F)(F)F)c5)c4c3c2)cc1 [HTL-5-34, 8-(4-propyl)phenyl-1-[3-(trifluoromethyl)phenyl]oxazolo[5,4-c]quinolin-2(1H)-one] | > 200 µM | >200 µM | 220 to 221 °C | 
16 | CC(C)(C)c1ccc(Nc2ccc3ncc4ccc(=O)n(-c5cccc(C(F)(F)F)c5)c4c3c2)cc1 [HTL-6-18, 9-(4-tert-butylphenyl)imino-2-oxo-1-[3-(trifluoromethyl)phenyl]-1,2-dihydrobenzo[h][1,6]naphthyridine] | > 200 µM | 7.04 ± 0.68 µM | 141 to 142 °C | 
17 | CC(=O)/C=C/c1cnc2ccc(-c3cnc4ccccc4c3)cc2c1Nc1cccc(C(F)(F)F)c1 [HTL-3-25, (E)-6-(3-quinolyl)-4-[3-(trifluoromethyl)phenyl]aminoquinoline-3-butenone] | > 200 µM | 0.68 ± 0.21 µM | 173 to 176 °C | 
18 | CC(=O)/C=C/c1cnc2ccc(-c3ccc(F)c(F)c3)cc2c1Nc1cccc(C(F)(F)F)c1 [HTL-3-34, (E)-6-(3,4-difluoro)phenyl-4-[3-(trifluoromethyl)phenyl]aminoquinoline-3-butenone] | > 200 µM | 3.02 ± 0.91 µM | 210 to 213 °C | 
19 | CCOc1cccc(-c2ccc3ncc(/C=C/C(C)=O)c(Nc4cccc(C(F)(F)F)c4)c3c2)c1 [HTL-3-16, (E)-6-(3-ethoxy)phenyl-4-[3-(trifluoromethyl)phenyl]aminoquinoline-3-butenone] | > 200 µM | 0.83 ± 0.79 µM | 184 to 185 °C | 
20 | CCOC(=O)/C=C/c1ccc2ncc3ccc(=O)n(-c4cccc(C(F)(F)F)c4)c3c2c1 [HTL-7-26, (E)-9-[2-ethoxycarbonyl-vinyl]-2-oxo-1-[3-(trifluoromethyl)phenyl]-1,2-dihydrobenzo[h][1,6]naphthyridine] | 0.28 ± 0.2 µM | 1.29 ± 0.57 µM | 210 to 212 °C | moderate inhibitory activity
21 | CCCCc1ccc(-c2ccc3ncc(/C=C/C(C)=O)c(Nc4cccc(C(F)(F)F)c4)c3c2)cc1 [HTL-3-42, (E)-6-(4-butyl)phenyl-4-[3-(trifluoromethyl)phenyl]aminoquinoline-3-butenone] | > 200 µM | 0.96 ± 0.15 µM | 149 to 150 °C | 

Source: patent US20220220106A1, “QUINOLINE COMPOUNDS AND PHARMACEUTICAL COMPOSITIONS AND USES THEREOF” (Academy of Military Medical Sciences, priority 2019, published 2022)
